Results reported in US7060490B1, “DNA encoding novel estrogen receptor” (Akzo Nobel N.V., priority 1996, dated 2006).

Columns and labels:
ERβ = ERβ (Homo sapiens, UniProt Q92731); assay: Transient transfection transactivation assay, rat oxytocin promoter-luciferase reporter in CHO cells, ERβ
ERα = biological target: T1, ERα (Homo sapiens, UniProt P03372); assay: Transactivation assay in stably transfected CHO cell line expressing ERα with rat oxytocin-luciferase reporter; format: cell-based; conditions: stably transfected CHO cell lines ERα vs ERβ; agonist curves FIGS. 5A, 5B
T1 construct: expressed in transfected cells
T1 sequence (P03372 whole entry): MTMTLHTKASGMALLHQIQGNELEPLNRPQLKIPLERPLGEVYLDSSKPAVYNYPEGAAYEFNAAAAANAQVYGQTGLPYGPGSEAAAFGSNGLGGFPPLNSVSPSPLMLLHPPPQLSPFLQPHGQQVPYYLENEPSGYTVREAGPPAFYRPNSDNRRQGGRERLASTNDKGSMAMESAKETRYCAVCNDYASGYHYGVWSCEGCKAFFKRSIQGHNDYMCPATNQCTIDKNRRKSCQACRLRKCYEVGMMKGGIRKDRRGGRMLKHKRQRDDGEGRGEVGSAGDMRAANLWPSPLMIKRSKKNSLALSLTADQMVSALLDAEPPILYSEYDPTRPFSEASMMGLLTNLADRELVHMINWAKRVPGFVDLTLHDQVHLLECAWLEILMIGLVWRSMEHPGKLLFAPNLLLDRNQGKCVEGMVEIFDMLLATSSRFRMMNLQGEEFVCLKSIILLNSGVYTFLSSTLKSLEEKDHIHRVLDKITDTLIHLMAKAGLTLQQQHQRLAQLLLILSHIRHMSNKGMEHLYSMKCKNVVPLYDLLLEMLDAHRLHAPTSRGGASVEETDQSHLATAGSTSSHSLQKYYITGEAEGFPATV

ERβ, sequence (Q92731 whole entry): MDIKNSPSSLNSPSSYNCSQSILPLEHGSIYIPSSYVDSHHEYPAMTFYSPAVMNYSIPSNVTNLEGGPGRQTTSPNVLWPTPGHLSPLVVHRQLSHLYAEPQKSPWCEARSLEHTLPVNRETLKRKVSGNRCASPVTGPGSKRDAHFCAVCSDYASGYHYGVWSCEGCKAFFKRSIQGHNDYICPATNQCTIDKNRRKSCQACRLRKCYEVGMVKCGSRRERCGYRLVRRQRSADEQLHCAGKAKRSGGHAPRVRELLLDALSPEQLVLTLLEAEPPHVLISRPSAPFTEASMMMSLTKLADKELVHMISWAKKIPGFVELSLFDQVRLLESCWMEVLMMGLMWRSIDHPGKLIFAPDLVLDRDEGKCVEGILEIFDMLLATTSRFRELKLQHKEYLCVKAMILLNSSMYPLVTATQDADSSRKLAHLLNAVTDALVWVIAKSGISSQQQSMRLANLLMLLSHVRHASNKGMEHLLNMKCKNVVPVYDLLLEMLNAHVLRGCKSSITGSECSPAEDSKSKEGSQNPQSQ

| SMILES | stimulation of luciferase activity with ERβ (ERβ; 10^−9 mol/L 17β-estradiol, transient CHO, normalised for β-galactosidase, FIG. 3) [fold] | increase in luciferase activity as compared to untreated cells (ERβ; CHO cells transiently transfected with ERβ expression vector and reporter, hormones 10^−7 mol/L, FIG. 2) [fold] | concentration for half-maximal transactivation, ERα as compared to ERβ (ERα) |
| --- | --- | --- | --- |
| C[C@]12CC[C@@H]3c4ccc(O)cc4CC[C@H]3[C@@H]1CC[C@@H]2O [17β-estradiol] | 7 | 3 to 4 |  |
| C#C[C@]1(O)CC[C@H]2[C@@H]3[C@H](C)CC4=C(CC[C@@H](O)C4)[C@H]3CC[C@@]21C [Org4094] |  |  | much more pronounced |
